Test results: ChEMBL document CHEMBL5380869, “Discovery of an Oral, Beyond-Rule-of-Five Mcl-1 Protein-Protein Interaction Modulator with the Potential of Treating Hematological Malignancies” (J Med Chem, 2023)
pKi: −log10 of the molar value. ≈ marks a conversion by molar mass, not a printed value.

Key:
[1] = Intrinsic clearance in human liver microsomes measured upto 60 mins by LC-MS/MS analysis; type: ADME, Microsome; conditions: read-out: CLH
[2] = Lipophilicity, CHI logD of compound at pH 7.4 by UPLC-TOF analysis; type: physicochemical; conditions: buffer
[3] = Cardiotoxicity risk in human iPSC-CM assessed as calcium transients at 3 uM by CTCM assay; type: toxicity, cell-based
[4] = Cardiotoxicity risk in human iPSC-CM assessed as calcium transients at 1 uM by CTCM assay; type: toxicity, cell-based
[5] = Thermodynamic (equilibrium) solubility of the compound measured after 3 days agitation in pH 7 buffer by LC-MS/MS analysis; type: physicochemical; conditions: time 3 day, read-out: Therm_solubility
[6] = Cardiotoxicity risk in human iPSC-CM assessed as calcium transients at 10 uM by CTCM assay; type: toxicity, cell-based
[7] = Thermodynamic (equilibrium) solubility of the compound measured after 3 days agitation in pH 2 buffer by LC-MS/MS analysis; type: physicochemical; conditions: time 3 day, read-out: Therm_solubility
[8] = Intrinsic clearance in mouse liver microsomes measured upto 60 mins by LC-MS/MS analysis; type: ADME, Microsome; conditions: read-out: CLH
[9] = Inhibition of terbium-labelled Mcl-1 (unknown origin)/Bim BH3 peptide (H3N-(C/Cy5Mal)-WIAQELRRIGDEFN-OH) (unknown origin) interaction assessed as displacement of Cy5-labeled Bim BH3 peptide by TR-HTRF assay
[10] = system: MOLP-8; assay: Induction apoptosis in human MOLP8 cells assessed as cell killing measured after 2 hrs by Caspase-Glo 3/7 Assay; type: functional, cell-based; conditions: MOLP-8, 2 h
[11] = Lipophilicity, CHI logD of compound at pH 2.6 by UPLC-TOF analysis; type: physicochemical; conditions: buffer
[12] = Lipophilicity, CHI logP of compound at pH 7.4 by UPLC-TOF analysis; type: physicochemical; conditions: buffer, read-out: logP

Structure (SMILES)	microsomal CLint [1] [µL/min/mg]	chromatographic logD [2]	solubility thermodynamic at 72 h [5] [µM]	solubility thermodynamic at 72 h [7] [µM]	microsomal CLint [8] [µL/min/mg]	pKi [9]	chromatographic logD [11]	chromatographic logD [12]	Activity [3]	Activity [4]	Activity [6]	AC50 [10] [nM]
COc1nn(C)cc1C(=O)N[S@]1(=O)=NC(=O)c2ccc3c(c2)N(C[C@@H]2CCO[C@H]2[C@@H](OC)/C(F)=C/C[C@H](C)C1)C[C@@]1(CCCc2cc(Cl)ccc21)CO3	16	3	202 (≈ 156 µg/mL)	< 0.1	9.3	9.60	–	–	Non-Toxic	Non-Toxic	–	2420
COc1nn(C)cc1C(=O)N[S@@]1(=O)=NC(=O)c2ccc3c(c2)N(C[C@@H]2CCO[C@H]2[C@H](OC)/C(F)=C/C[C@H](C)C1)C[C@@]1(CCCc2cc(Cl)ccc21)CO3	< 7.7	2.9	188 (≈ 145 µg/mL)	0.2 (≈ 0.154 µg/mL)	< 7.7	8.29	–	–	Non-Toxic	Non-Toxic	–	> 5000
C[C@@H]1[C@@H](C)C/C=C(\F)[C@@](O)(CN2CCN3CCCC[C@@H]3C2)[C@@H]2OCC[C@H]2CN2C[C@@]3(CCCc4cc(Cl)ccc43)COc3ccc(cc32)C(=O)NS1(=O)=O	< 7.7	–	< 0.1	95 (≈ 74.6 µg/mL)	< 7.7	9.66	2.5	2.9	–	–	–	2660
C[C@@H]1[C@@H](C)C/C=C(\F)[C@H](OCCN2CCOCC2)[C@@H]2OCC[C@H]2CN2C[C@@]3(CCCc4cc(Cl)ccc43)COc3ccc(cc32)C(=O)NS1(=O)=O	62	2.7	1.2 (≈ 0.896 µg/mL)	539 (≈ 402 µg/mL)	34	9.72	2.5	–	Non-Toxic	Non-Toxic	Non-Toxic	314
C/C1=C\C[C@H](C)[C@@H](C)S(=O)(=O)NC(=O)c2ccc3c(c2)N(C[C@@H]2CCO[C@H]2[C@H]1CO)C[C@@]1(CCCc2cc(Cl)ccc21)CO3	< 7.7	2.8	< 0.1	< 0.1	27	9.28	–	–	–	–	–	752
CO[C@@H]1/C(F)=C/C[C@H](C)[C@@H](C)S(=O)(=O)NC(=O)c2ccc3c(c2)N(C[C@@H]2CCO[C@H]21)C[C@@]1(CCCc2cc(Cl)ccc21)CO3	< 7.7	3	11.2 (≈ 7.25 µg/mL)	< 0.5	21	8.95	–	–	–	–	–	1120
C[C@@H]1[C@@H](C)C/C=C/[C@H](O)[C@@H]2OCC[C@H]2CN2C[C@@]3(CCCc4cc(Cl)ccc43)COc3ccc(cc32)C(=O)NS1(=O)=O	16	2.6	53 (≈ 32.6 µg/mL)	< 0.1	28	9.14	–	–	–	–	–	752
CO[C@H]1/C(F)=C/C[C@H](C)[C@@H](C)S(=O)(=O)NC(=O)c2cnc3c(n2)N(C[C@@H]2CCO[C@H]21)C[C@@]1(CCCc2cc(Cl)ccc21)CO3	98	2.8	143 (≈ 92.8 µg/mL)	< 0.1	< 7.7	8.28	–	–	–	–	–	1220
C[C@@H]1[C@@H](C)C/C=C(\F)[C@@](O)(CC#N)[C@@H]2OCC[C@H]2CN2C[C@@]3(CCCc4cc(Cl)ccc43)COc3ccc(cc32)C(=O)NS1(=O)=O	< 7.7	3.1	0.3 (≈ 0.202 µg/mL)	< 0.5	< 7.7	8.63	–	–	–	–	–	> 5000
C[C@@H]1[C@@H](C)C/C=C(\F)[C@@](O)(CC(=O)N(C)C)[C@@H]2OCC[C@H]2CN2C[C@@]3(CCCc4cc(Cl)ccc43)COc3ccc(cc32)C(=O)NS1(=O)=O	< 7.7	3.6	< 0.1	< 0.1	< 7.7	9.74	–	–	Non-Toxic	Non-Toxic	–	436
C[C@@H]1[C@@H](C)C/C=C/[C@H](OCCN2CCOCC2)[C@@H]2OCC[C@H]2CN2C[C@@]3(CCCc4cc(Cl)ccc43)COc3ccc(cc32)C(=O)NS1(=O)=O	34	2.7	0.4 (≈ 0.291 µg/mL)	521 (≈ 379 µg/mL)	14	9.64	2.3	–	Non-Toxic	Non-Toxic	Non-Toxic	616
COC[C@H]1/C(C)=C/C[C@H](C)[C@@H](C)S(=O)(=O)NC(=O)c2ccc3c(c2)N(C[C@@H]2CCO[C@H]21)C[C@@]1(CCCc2cc(Cl)ccc21)CO3	< 7.7	3.7	< 0.1	< 0.1	18	9.17	–	–	–	–	–	1820

Molecules with a higher pKi [9], results first:

microsomal CLint [1] [µL/min/mg]	chromatographic logD [2]	solubility thermodynamic at 72 h [5] [µM]	solubility thermodynamic at 72 h [7] [µM]	microsomal CLint [8] [µL/min/mg]	pKi [9]	chromatographic logD [11]	chromatographic logD [12]	Structure (SMILES)	Activity [3]	Activity [4]	Activity [6]	AC50 [10] [nM]
< 7.7	3	25 (≈ 23.1 µg/mL)	480 (≈ 444 µg/mL)	< 7.7	9.77	–	–	COc1nn(C)cc1C(=O)N[S@]1(=O)=NC(=O)c2ccc3c(c2)N(C[C@@H]2CCO[C@H]2[C@](CN2CCN4CCOC[C@@H]4C2)(OC)/C(F)=C/C[C@H](C)C1)C[C@@]1(CCCc2cc(Cl)ccc21)CO3	Non-Toxic	Non-Toxic	Non-Toxic	702
< 7.7	3.1	0.6 (≈ 0.462 µg/mL)	< 0.1	16	10.60	–	–	COc1nn(C)cc1C(=O)N[S@]1(=O)=NC(=O)c2ccc3c(c2)N(C[C@@H]2CCO[C@H]2[C@H](OC)/C(F)=C/C[C@H](C)C1)C[C@@]1(CCCc2cc(Cl)ccc21)CO3	Non-Toxic	Non-Toxic	Non-Toxic	486
< 7.7	–	102 (≈ 81.5 µg/mL)	40 (≈ 32 µg/mL)	< 7.7	9.82	2.5	3	CO[C@@]1(CN2CCN3CCCC[C@@H]3C2)/C(F)=C/C[C@H](C)[C@@H](C)S(=O)(=O)NC(=O)c2ccc3c(c2)N(C[C@@H]2CCO[C@H]21)C[C@@]1(CCCc2cc(Cl)ccc21)CO3	–	–	–	1860
< 7.7	3	518 (≈ 479 µg/mL)	544 (≈ 503 µg/mL)	< 7.7	10.32	–	–	COc1nn(C)cc1C(=O)N[S@]1(=O)=NC(=O)c2ccc3c(c2)N(C[C@@H]2CCO[C@H]2[C@@](CN2CCN4CCOC[C@@H]4C2)(OC)/C(F)=C/C[C@H](C)C1)C[C@@]1(CCCc2cc(Cl)ccc21)CO3	Non-Toxic	Non-Toxic	–	424
11	–	< 0.1	44 (≈ 35.3 µg/mL)	21	10.06	2.8	3.5	CO[C@]1(CN2CCN3CCOC[C@@H]3C2)/C(F)=C/C[C@H](C)[C@@H](C)S(=O)(=O)NC(=O)c2ccc3c(c2)N(C[C@@H]2CCO[C@H]21)C[C@@]1(CCCc2cc(Cl)ccc21)CO3	Non-Toxic	Non-Toxic	Toxic	163
< 7.7	–	1.1 (≈ 0.872 µg/mL)	518 (≈ 410 µg/mL)	28	10.02	3	3.9	COCCN(CCOC)C[C@]1(OC)/C(F)=C/C[C@H](C)[C@@H](C)S(=O)(=O)NC(=O)c2ccc3c(c2)N(C[C@@H]2CCO[C@H]21)C[C@@]1(CCCc2cc(Cl)ccc21)CO3	–	–	–	412
< 7.7	2.9	172 (≈ 129 µg/mL)	0.27 (≈ 0.203 µg/mL)	< 7.7	10.64	–	–	COc1nn(C)cc1C(=O)N[S@@]1(=O)=NC(=O)c2ccc3c(c2)N(C[C@@H]2CCO[C@H]2[C@@H](OC)/C=C/C[C@H](C)C1)C[C@@]1(CCCc2cc(Cl)ccc21)CO3	Non-Toxic	Non-Toxic	Non-Toxic	76.1
< 7.7	–	< 0.1	516 (≈ 414 µg/mL)	22	9.89	3.4	3.3	CO[C@@]1(CN2CCN3CCOC[C@@H]3C2)/C(F)=C/C[C@H](C)[C@H](C)S(=O)(=O)NC(=O)c2ccc3c(c2)N(C[C@@H]2CCO[C@H]21)C[C@@]1(CCCc2cc(Cl)ccc21)CO3	Non-Toxic	Non-Toxic	Toxic	992
